Data on 3 compounds can be found in publication PMC11650737, “Developing MYC Degraders Bearing the Von Hippel–Lindau Ligand to Target the “Undruggable” MYC” (ACS Pharmacology & Translational Science, 2024).

In one series the test system is PC3 cells. Nature of the series: Cell viability (MTT) assay, PC3. Conditions: Homo sapiens, PC-3, 72 h, read-out: IC50 (antiproliferative effect). It is filed as cell-based, human. As for the experimental part:
The antiproliferative activity of the synthesized compounds was tested in cell viability assays optimally set up for various cancer cell lines (results are depicted in Table 2, n = 3, average IC50 (μM) ± SD).
Cells were plated at a density of 5 × 10^3 cells per well on 96-well plates. After 24 h of incubation (37 °C, 5% CO2), the cell medium was removed, and compounds were added at selected concentrations (0.1–100 μM), followed by incubation for 72 h. Control cells were treated with 0.4% DMSO medium to match the conditions in the wells where drugs were added. After 72 h, the medium was removed, and the 3-(4,5-dimethylthiazol-2-yl)-2,5-diphenyltetrazolium bromide (MTT) solution (0.3 mg/mL in PBS) was added to cells for 3 h under no light conditions. The MTT solution was removed, and the formazan crystals were dissolved in 100 μL of DMSO. The optical density was measured at 570 nm with a reference wavelength of 690 nm using an absorbance microplate reader (SpectraMax 190, Molecular Devices, Sunnyvale, CA, USA). The half-maximal inhibitory concentration (IC50) was calculated based on a four-parameter logistic equation, generating a cell viability curve, using GraphPad Prism 6.01 (GraphPad Software, Inc.). Two concentrations of an established drug, Docetaxel (100 nM and 1 nM), were used in each experiment as a positive control. The resulting absorbance values were used instead of IC50 calculation. Each point was the result of three independent experiments performed in triplicate.

The nature of series [1]: Pharmacokinetic study in mice. Conditions: for adverse effects during the study / level in blood circulation 24 h after treatment / AUCs: i.p.; for adverse effects during the study: 10 mg/kg single dose; for level in blood circulation 24 h after treatment / AUCs / concentration at 8 h / Cmax / Tmax / half-life: 10 mg/kg; for AUCs / Cmax / Tmax: blood; for concentration at 8 h / Cmax / Tmax / half-life: male, C57BL/6J, mouse, whole blood; for concentration at 8 h: read-out: average blood concentration 8 h after administration; for half-life: noncompartmental analysis, read-out: T ½ (converted). Format: in vivo, mice (male C57BL/6J). As for the experimental part: In order to assess the efficacy potential of MYC degraders in animal models, pharmacokinetic studies were carried out in mice (Figure 6A,B). Following intraperitoneal (i.p.) administration of selected compounds, CSI86, CSI135, and CSI107 at 10 mg/kg, blood samples were collected at different time points until 24 h post-drug administration, and concentrations were determined via LC-MS/MS.
Animals that were used for the study were male C57BL/6J (n = 7) at the age of 6–8 weeks (average weight = 20–25 g). Each PROTAC was administered at 10 mg/kg, and the dosing volume per animal was 200 μL. The vehicle for CSI86, CSI107, and […], respectively, was corn oil/10% DMSO, and the administration was i.p. CSI86 was also administered PO at the same dose using 0.5% carboxymethyl cellulose (CMC) as a vehicle in water. Whole blood from two control mice was used for the preparation of standard solutions.
A serial tail bleeding protocol was performed for the collection of blood samples. Blood samples (10 μL) were collected at selected time points (15 min, 30 min, 1 h, 2 h, 4 h, 6 h, 8 h, and 24 h) in tubes containing 40 μL of sodium citrate (0.1 M, pH 4.5) and stored at −80 °C until the day of the analysis.
For the calculation of T1/2, a noncompartmental pharmacokinetics analysis was used via the online application “Dash App Gallery Pharmacokinetics Calculator.” […]
Characterization and Quantitative Analysis of PROTACs by Liquid Chromatography-Mass Spectrometry […]
For detection and quantification of the PROTACs in medium and biological samples, LC-MS/MS methodologies were developed. Mass spectrometry was performed on a Triple Quad 5500 + LC-MS/MS system fitted with a TurboIonSpray source and a hybrid triple quadrupole/linear ion trap mass spectrometer. HPLC was performed using an Exion LC AB Sciex system with a temperature-controlled column compartment and an autosampler. A C8 column (SunFire 2.1 x 50 mm, 3.5 μm) (Waters, MA, USA) was used at a flow rate of 0.3 mL/min for the separation of the analytes of interest. The mobile phase consisted of A: 10% ACN, 90% water, 2 mM ammonium acetate, and 0.1% FA and B: 90% ACN, 10% water, 2 mM ammonium acetate, and 0.1% FA, the injection volume was 10 μL. Elution of CSI86 PROTAC was achieved by a gradient of solvent A – solvent B described as follows: 100% A (0.0 - 0.5 min), 20% A (1.0 – […]
3.0 min), 100% A (3.1 – 5.1 min).
1040.5, for the CSI86 PROTAC with exact mass of 1039 (g/mol). Elution of CSI107 PROTAC was achieved by a gradient of solvent A – solvent B described as follows: 80% A (0.0 - 0.5 min), 15% A (1.5 – 3.5 min), […]
the CSI107 PROTAC with an exact mass of 1053 (g/mol).
Table S1: Optimized parameters for the LC-MS/MS analysis. […]
Detection protein degraders in mouse blood by LC-MS/MS analysis
For the LC-MS/MS analysis of the PK study, sample preparation was performed as follows.
Double Blank Blank + IS Standards
50 μL blood 50 μL blood 50 μL blood
10 μL ACN: H 2O 10 μL ACN: H 2O 10 μL std
300 μL of cold ACN were added in all samples for protein precipitation, followed by centrifugation at 13000 rpm for 10 min. The supernatant was transferred in glass tubes and evaporated at 55 °C for approximately 1 h. The samples were reconstituted in Mobile Phase A (90% H2O-10% ACN, 0.1% FA, 2 mM ammonium acetate) and the circulating amount of PROTAC was determined by LC-MS/MS analysis using a stable internal standard such as Warfarin or BETd-260 respectively. Gradient (20% A – 80% B) LC-MS/MS conditions were applied and the concentration range for the standard curve was 1 - 10.000 ng/mL. […]

Several values for one entry are separate records, joined by “and”; a condition that tells them apart may be missing. Identical values can stand only once. A value given as a limit tells only on which side of the number the result lay.

Broadly, the IC50 is the concentration that inhibits the measured activity by half. As usually defined, the Cmax is the peak of the concentration-time curve. What is called Tmax is the time from dosing to the highest level. With `Cc1ncsc1-c1ccc(CNC(=O)[C@@H]2C[C@@H](O)CN2C(=O)[C@@H](NC(=O)CCCC(=O)NCCCOc2ccc(-c3cc(C(F)(F)F)nn3C)c(O)c2-c2cc(C(F)(F)F)cc(C(F)(F)F)c2)C(C)(C)C)cc1` [CSI107], the IC50 with PC3 cells was 13 ± 7 µM. Moreover, in series [1], the “adverse effects during the study” value was “no adverse effects were reported”, the “level in blood circulation 24 h after treatment” value (from here on “level in blood circulation 24 h”) was “evident levels of the degrader being present in blood circulation” and the AUCs is listed as 3,4 h x μg/mL. In series [1] (ip), the concentration at 8 h was ~150 ng/mL and ~140 nM; the Cmax was 413 ng/mL and 392 nM; the time to peak (Tmax) worked out at 2 h; the half-life is 5 ± 0.5 h.

As for `Cc1ncsc1-c1ccc(CNC(=O)[C@@H]2C[C@@H](O)CN2C(=O)[C@@H](NC(=O)CCC(=O)NCCCOc2ccc(-c3cc(C(F)(F)F)nn3C)c(O)c2-c2cc(C(F)(F)F)cc(C(F)(F)F)c2)C(C)(C)C)cc1` [CSI86], in the series with PC3 cells, the IC50 was 18 ± 7 µM. In series [1], the “adverse effects during the study” value is listed as “no adverse effects were reported”, the “level in blood circulation 24 h” value was “evident levels of the degrader being present in blood circulation” and the AUCs was 8,4 h x μg/mL. In series [1] (ip), the concentration at 8 h is ~500 ng/mL and ~480 nM; the Cmax is 713 ng/mL and 686 nM; the Tmax worked out at 2 h; the half-life is 7.4 h. In addition, the peak concentration (Cmax) in series [1] (oral gavage (PO)) is less than 100 ng/mL.

For the compound `Cc1ncsc1-c1ccc(CNC(=O)[C@@H]2C[C@@H](O)CN2C(=O)[C@@H](NC(=O)COCCOCC(=O)NCCCOc2ccc(-c3cc(C(F)(F)F)nn3C)c(O)c2-c2cc(C(F)(F)F)cc(C(F)(F)F)c2)C(C)(C)C)cc1` [CSI135], in the series with PC3 cells, the concentration for half-maximal inhibition (IC50) amounted to 25 ± 2 µM. Further, in series [1], the “adverse effects during the study” value is recorded as “no adverse effects were reported”, the “level in blood circulation 24 h” value was “evident levels of the degrader being present in blood circulation” and the AUCs came to 6 h x μg/mL. In series [1] (ip), the peak concentration (Cmax) was 699 ng/mL and 636 nM; the Tmax was 2 h; the half-life was 7.6 h.
